doi:10.1101/2024.08.22.609123v2 (biorxiv, 2024)
pIC50, pKd: −log10 of the molar value.

How the values were obtained:
[1] = target: T1, GPX4 (residues 28-197) (Homo sapiens, UniProt P36969); experiment: SPR; format: binding
T1 sequence (P36969 28-197): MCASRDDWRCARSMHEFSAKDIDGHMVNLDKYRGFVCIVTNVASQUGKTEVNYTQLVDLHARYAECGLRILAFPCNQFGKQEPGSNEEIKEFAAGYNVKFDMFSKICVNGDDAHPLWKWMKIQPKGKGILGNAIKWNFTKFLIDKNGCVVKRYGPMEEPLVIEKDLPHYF

[2] = target: T2, GPX4 (Homo sapiens, UniProt P36969); experiment: coupled glutathione reductase / NADPH assay, […] nm; format: biochemical
T2 sequence (P36969 28-197): T1 sequence (P36969 28-197)

**Q.** Which results are given for Cc1ccc(C(=O)O)cc1-c1ccc(/C=C2\SC(=O)N(Cc3ccc(F)cc3)C2=O)o1 [DP021]?
**A.** pKd [1]: 5.74; pIC50 [2]: 5.38

**Q.** How did the pIC50 [2] turn out when COC(=O)c1ccc(C)c(-c2ccc(/C=C3\SC(=O)N(Cc4ccc(F)cc4)C3=O)o2)c1 [DP037] was run?
**A.** < 4.00
